Results: ChEMBL document CHEMBL6092147, “Design of inhibitors of SARS-CoV-2 papain-like protease deriving from GRL0617: Structure-activity relationships” (Bioorg Med Chem, 2024)

Experiment: Inhibition of SARS-CoV-2 wild type papain-like protease (PLpro) C111S mutant extracted from Escherichia coli using LKGG-AMC as substrate incubated for 60 mins by fluorescence based analysis
Parameters: species or system Severe acute respiratory syndrome coronavirus 2

Row | SMILES | IC50 [µM]
1 | Cc1ccc(NC(=O)NC(N)=O)cc1C(=O)N[C@H](C)c1cccc2ccccc12 | 5.1
2 | CCC(=O)Nc1ccc(C)c(C(=O)N[C@H](C)c2cccc3ccccc23)c1 | 6.4
